Measurements from paper PMC10239968, “[^18F]AlF-NOTA-ADH-1: A new PET molecular radiotracer for imaging of N-cadherin-positive tumors” (Frontiers in Oncology, 2023).

Legend:
[1] = In vitro stability in PBS; format: physicochemical; conditions: 3.7 MBq in 0.5 mL PBS, 37 °C (results; method: room temperature), radio-TLC or radio-HPLC
Experimental: The stability of [^18F]AlF-NOTA-ADH-1 was tested in PBS and bovine serum. In brief, 3.7 MBq of[^18F]AlF-NOTA-ADH-1 was pipetted into 0.5 mL of PBS and incubated in PBS at room temperature or bovine serum at 37°C. For the study, an aliquot of the solution was directly taken at 1, 6, and 8 h after incubation, and the radiochemical purity was determined by radio-TLC or radio-HPLC under identical conditions.

in vivo = format: in vivo, BALB/c nu/nu mice; conditions: female, BALB/c nu/nu, mouse, in vivo, iv, total radioactivity
Experimental: (§1) All animal experiments were performed in accordance with and approved by the Institutional Animal Care and Use Committee guidelines of the First Affiliated Hospital of Zhejiang University School of Medicine. BALB/c nu/nu mice (female, 20 ± 3 g, 4- to 6-week-old; Department of Laboratory Animal Science, Zhejiang University) were used in this study. The SW480 and BxPC3 xenografts were generated, and 5×10^6 tumor cells were subcutaneously injected into the flanks of female athymic nude mice. The PDX-bearing mouse models were established as follows. Pancreatic cancer (diagnosed as pancreatic ductal adenocarcinoma) tissues were obtained from the surgery of a patient. Written informed consent was obtained from the patient, and the research protocol was approved by the Clinical Research Ethics Committee of the First Affiliated Hospital of Zhejiang University School of Medicine. The sample was sectioned into about 1mm^3 pieces, and the tumor tissues were subcutaneously implanted into BALB/c nu/nu mice flanks. Mice were allowed free access to sterile water and food and were kept under strict disease-free conditions with controlled temperature (~25°C), humidity (50-70%), and circadian rhythms (12-hour light/dark cycles). All necessary procedures were carried out to minimize discomfort and avoid the waste of animals. The length and width of the tumor were measured every other day. Biodistribution studies and positron emission tomography in mice were performed after the tumor volume reached 150 to 200 mm^3.
(§2) The BALB/c nude mice were randomized into different tumor models (SW480, BxPC3, and pancreatic PDX), including 5 mice per group. Each nude mouse was injected with 0.74MBq (20μCi) [^18F]AlF-NOTA-ADH-1 through the caudal vein. Blood was collected from the orbit, and the mice were dissected to collect the brain, heart, lung, liver, liver, spleen, stomach, intestine, muscle, bone and others at 30 min, […], 60min, 90min and 120min after injection. In the blocked group, the study was performed with a saturating dose of ADH-1 (20 mg/kg of mouse body weight) intravenously administered 60min before the intravenous injection of [^18F]AlF-NOTA-ADH-1 in the pancreatic PDX model and SW480 xenograft model. The mice in the tumor xenograft model were sacrificed 1h after [^18F]AlF-NOTA-ADH-1 injection. The nude mice were dissected, and tumor tissues and related tissues (blood, brain, heart, lung, liver, spleen, kidney, stomach, intestine, muscle and bone) were weighed, and their radioactivity was measured by γ-counter. The radioactivity results were recorded as % ID/g.

BxPC3 tumor xenografts [2] = experiment: in vivo; format: in vivo, BALB/c nu/nu mice; conditions: for T/Blood ratio / T/Muscle ratio / Tumor uptake: BxPC3 xenograft nude mice, n=5, mean±SD
Experimental: as §1, §2

[3] = test system: pancreatic PDX tumor xenografts; experiment: Micro-PET imaging, PDX tumor model; format: in vivo, nude mice; conditions: 60 min p.i.
Experimental: (§3) [^18F]AlF-NOTA-ADH-1 was evaluated by micro-PET imaging on nude mice bearing a PDX tumor, SW-480 and BxPC3 tumor xenografts. Each tumor-bearing nude mouse was injected with 3.7MBq [^18F]AlF-NOTA-ADH-1 via the tail vein. After being anesthetized with isoflurane, tumor-bearing nude mice were imaged using a micro-PET/CT scanner at 60 minutes post-injection under continuous isoflurane inhalation using a nasal mask with a connecting tube. Micro-PET/CT scanning was performed after low-dose 3D acquisition CT scanning at 10 minutes per bed. A blocking study was conducted, in which a saturating dose of unlabeled ADH-1 (20 mg/kg of mouse body weight) was intravenously administered 60 min before the intravenous injection of [^18F]AlF-NOTA-ADH-1.
(§4) The three-dimensional volume of interest (VOI) was used to assess the standard uptake value (SUV) of selected organs. The Seimens Inveon analysis software configured with micro-PET/CT was used to delineate the region of interest along the edge of the tumor and each normal tissue on the PET image. Subsequently, the SUV of each region of interest was measured, and the tumor/non-tumor ratio (T/NT) between the tumor and normal tissue was measured.

BxPC3 tumor xenografts [4] = experiment: Micro-PET imaging, BxPC3 tumor model; format: in vivo, nude mice; conditions: BxPC3-bearing tumor model mice, 60 min p.i.
Experimental: as §3, §4

[5] = 0.74 MBq (20 uCi) per mouse, Kidney uptake

## CC(=O)N[C@H]1CSSC[C@@H](C(=O)NCCNC(=O)CN2CCN(CC(=O)O)CCN(CC(=O)O)CC2)NC(=O)[C@H](C(C)C)NC(=O)[C@H](C)NC(=O)[C@H](Cc2c[nH]cn2)NC1=O [[^18F]AlF-NOTA-ADH-1]
[1]
  Radiochemical purity after 8 h in PBS: about 95.5%
In vivo; [5]
  tissue uptake at 1 h: 10.2 ± 0.47 %ID/g
  tissue uptake at 1.5 h: 9.39 ± 0.75 %ID/g
  tissue uptake at 2 h: 6.61 ± 0.87 %ID/g
In vivo; 0.74 MBq, Muscle uptake
  tissue uptake at 0.5 h: 1.03 ± 0.4 %ID/g
In vivo; 0.74 MBq, Pancreas uptake
  tissue uptake at 0.5 h: 0.23 ± 0.08 %ID/g
  tissue uptake at 1 h: 0.61 ± 0.09 %ID/g
  tissue uptake at 1.5 h: 0.49 ± 0.23 %ID/g
  tissue uptake at 2 h: 0.65 ± 0.11 %ID/g
BxPC3 tumor xenografts [2]; BxPC3 tumor model
  Tumor tissue uptake: no significant uptake
BxPC3 tumor xenografts [2]; 30min p.i.
  T/Blood ratio: 3.18± 0.08
  T/Muscle ratio: 0.86±0.21
  Tumor uptake: 0.89±0.12 %ID/g
BxPC3 tumor xenografts [2]; 60min p.i.
  T/Blood ratio: 4.22±0.23
  T/Muscle ratio: 0.96±0.32
  Tumor uptake: 1.07±0.36 %ID/g
BxPC3 tumor xenografts [2]; 90min p.i.
  T/Blood ratio: 5.45±0.10
  T/Muscle ratio: 0.66±0.19
  Tumor uptake: 0.60±0.12 %ID/g
BxPC3 tumor xenografts [2]; 120min p.i.
  T/Blood ratio: 1.42±0.13
  T/Muscle ratio: 0.63±0.23
  Tumor uptake: 0.37±0.07 %ID/g
[3]; 3.7MBq i.v., SUV-based T/NT
  Micro-PET tumor/muscle ratio: 8.069±2.832
[3]; printed in the sentence on blocking with unlabeled ADH-1 (group unclear)
  Micro-PET T/Lung: 5.062 ± 0.805
BxPC3 tumor xenografts [4]
  Micro-PET T/Bone: 0.055 ± 0.022
  Micro-PET T/Lung: 0.291 ± 0.195
  Micro-PET tumor/muscle ratio: 1.018 ± 0.498
